In experiment [1] the test system is murine iNKT hybridoma N38-2C12. Kind of experiment: Co-culture of glycolipid-pulsed BMDC with iNKT cell hybridoma 2C12, IL-2 by ELISA. Format: cell-based. Particulars: BMDC loaded 20 hours with 100 ng/mL glycolipid, 16 hours co-culture with 2C12 cells. The protocol:
The murine iNKT hybridoma N38-2C12 (Vα14Vβ8.1/8.2b) was provided by Brown University, Providence, Rhode Island, USA). Cells were cultured in DMEM Sigma) supplemented with 10% fetal calf serum (Invitrogen), 1% glutamine (Sigma), 1% penicillin streptomycin (Sigma), and 2-mercapto-ethanol (Sigma) (hereinafter called cDMEM). B16 melanoma cells were cultured in advanced RPMI (Sigma) supplemented with 10% fetal calf serum (Invitrogen), 1% glutamine (Sigma) and 1% penicillin streptomycin (Sigma). They were harvested using cell dissociation buffer, which was washed away twice first using the medium and second with PBS. 400,000 cells were intravenously (IV) injected within 30 minutes after harvest into the tail vein.
For in vitro stimulation, murine iNKT hybridoma cells at 5·10^4 cells/well in 96-well plates were stimulated with the 10^5 cells/well glycolipid pulsed BMDCs in cDMEM for 4, 16 or 24 hours at […], and levels of murine IL-2 secretion were determined by ELISA.
iNKT cell polarization is a matter of debate and it has been shown uptake by different cells can also affect the outcome. To avoid these host dependent parameters we set up a simple in vitro model, which consists of co-cultures of glycolipid-pulsed bone marrow dendritic cells and an iNKT cell hybridoma (i.c. 2C12 containing a Vβ8.2 TCR). IL-2 production is used as a read-out for TCR affinity for the whole CD1d-glycolipid complex. […] To confirm this we also measured intracellular IL-2 production in 2C12 cells already 4 hours after coculture, where a similar result was obtained (FIG. 2). Because IL-2 production is a downstream event of TCR signaling we analyzed TCRβ expression.
In order to assess the antigenic activity of the triazolyl-containing galactopyranosyl compounds of example 10, bone marrow dendritic cells (BMDC) were loaded during 20 hours with 100 ng/mL glycolipid. After 16 hours of co-culture with 2C12 cells (iNKT cell hybridoma), IL-2 secretion was determined by ELISA.
In general terms: An ELISA detects its analyte on a solid surface through an enzyme-linked reagent.

Experiment [2] relates to collagen-induced arthritis (CIA) and experimental auto-immune encephalomyelitis (EAE). The note with it: CIA and EAE in mice; cited from earlier work.

Take “(2S,3S,4R)-1-O-(6-deoxy-6-(4-butyltriazol-1-yl)-α-D-galactopyranosyl)-2-hexacosylamino-octadecane-1,3,4-triol [Compound 44]”: in experiment [1], the IL-2 secretion result is given as “tend to induce the highest IL-2 secretion”. On to “(2S,3S,4R)-1-O-(6-deoxy-6-(triazol-1-yl)-α-D-galactopyranosyl)-2-hexacosylamino-octadecane-1,3,4-triol [non-substituted triazolyl compound]”, for which the IL-2 secretion entry in experiment [1] is on record as “even better in stimulating iNKT cells to release IL-2”. On to `CCCCCCCCCCCCCCCCCCCCCCCC(=O)N[C@@H](COC1OC(CO)C(O)C(O)C1O)[C@H](O)[C@H](O)CCCCC` (stereo partly shown) [OCH], for which the “effect on Th1-mediated auto-immune diseases” value in experiment [2] is “protective effect”. In the case of “(2S,3S,4R)-1-O-(6-deoxy-6-(4-phenyltriazol-1-yl)-α-D-galactopyranosyl)-2-hexacosylamino-octadecane-1,3,4-triol [Compound 45]”, the IL-2 secretion entry in experiment [1] is recorded as “tend to induce the highest IL-2 secretion”.

Source of the values: patent US9321796B2, “Galactopyranosyl derivatives useful as medicaments” (Universiteit Gent, priority 2012, dated 2016).
